One test has as its target T1, HIF-PH2 (EGLN1) (Homo sapiens, UniProt Q9GZT9).
T1 construct: made in house; host or cells: insect Hi5 cells
The test is described as follows: HIF-PH assay (14CO2 capture, peptide-dependent turnover). It counts as biochemical. As to conditions: Concentration 22.22 μM. The text has this:
Ketoglutaric acid α-[1-^14C]-sodium salt, alpha-ketoglutaric acid sodium salt, and HPLC purified peptide may be obtained from commercial sources, e.g., Perkin-Elmer (Wellesley Mass.), Sigma-Aldrich, and SynPep Corp. (Dublin Calif.), respectively. Peptides for use in the assay may be fragments of HIFα as described above or as disclosed in International Publication WO 2005/118836, incorporated by reference herein. For example, a HLF peptide for use in the HIF-PH assay is [methoxycoumarin]-DLDLEALAPYIPADDDFQL-amide. HIF-PH, e.g., HIF-PH2 (EGLN1), can be expressed in, e.g., insect Hi5 cells, and partially purified, e.g., through a SP ion exchange chromatography column. Enzyme activity is determined by capturing ^14CO2 using an assay described by Kivirikko and Myllyla (1982, Methods Enzymol. 82:245-304). Assay reactions contain 50 mM HEPES (pH 7.4), 100 μM α-ketoglutaric acid sodium salt, 0.30 μCi/mL ketoglutaric acid α-[1-^14C]-sodium salt, 40 μM FeSO4, 1 mM ascorbate, 1541.8 units/mL Catalase, with or without 50 μM peptide substrate and various concentrations of compound of the invention. Reactions are initiated by addition of HIF-PH enzyme.
The peptide-dependent percent turnover is calculated by subtracting percent turnover in the absence of peptide from percent turnover in the presence of substrate peptide. Percent inhibition and IC50 are calculated using peptide-dependent percent turnover at given inhibitor concentrations. Calculation of IC50 values for each inhibitor is conducted using GraFit software (Erithacus Software Ltd., Surrey UK). […]
T1 sequence (Q9GZT9 whole entry, species assumed): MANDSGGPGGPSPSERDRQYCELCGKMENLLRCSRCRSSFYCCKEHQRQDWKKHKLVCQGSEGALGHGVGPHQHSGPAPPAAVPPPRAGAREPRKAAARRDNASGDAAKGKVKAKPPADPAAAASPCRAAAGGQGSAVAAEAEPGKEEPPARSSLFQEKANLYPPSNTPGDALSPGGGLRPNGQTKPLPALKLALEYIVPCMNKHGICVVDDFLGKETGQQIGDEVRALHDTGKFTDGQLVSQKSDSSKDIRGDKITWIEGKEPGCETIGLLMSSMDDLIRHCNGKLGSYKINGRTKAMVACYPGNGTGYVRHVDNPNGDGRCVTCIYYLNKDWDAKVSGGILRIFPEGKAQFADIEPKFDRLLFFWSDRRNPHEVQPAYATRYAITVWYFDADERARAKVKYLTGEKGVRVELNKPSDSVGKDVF
`O=C(O)CNC(=O)c1nc(-c2ccccc2)c2onc(-c3ccccc3)c2c1O` [Example 13, [(4-Hydroxy-3,7-diphenyl-isoxazolo[5,4-c]pyridine-5-carbonyl)-amino]-acetic acid] had an inhibition at 22.22 µM of 98.4%. Same read-out and setting: for `O=C(O)CNC(=O)c1ncc2onc(-c3ccc(Cl)cc3)c2c1O` [Example 14, {[3-(4-Chloro-phenyl)-4-hydroxy-isoxazolo[5,4-c]pyridine-5-carbonyl]-amino}-acetic acid] the value was 98.8%; for `O=C(O)CNC(=O)c1ncc2onc(-c3ccccc3Cl)c2c1O` [Example 15, {[3-(2-Chloro-phenyl)-4-hydroxy-isoxazolo[5,4-c]pyridine-5-carbonyl]-amino}-acetic acid], 95.7%. Same read-out and setting: for `COc1ccc(-c2noc3cnc(C(=O)NCC(=O)O)c(O)c23)cc1` [Example 16, {[4-Hydroxy-3-(4-methoxy-phenyl)-isoxazolo[5,4-c]pyridine-5-carbonyl]-amino}-acetic acid] the value was 97.9%.

`O=C(O)CNC(=O)c1ncc2onc(-c3cccc(Cl)c3)c2c1O` [Example 17, {[3-(3-Chloro-phenyl)-4-hydroxy-isoxazolo[5,4-c]pyridine-5-carbonyl]-amino}-acetic acid]: at 22.22 µM the inhibition was 98.6%. `O=C(O)CNC(=O)c1ncc2onc(-c3c(F)cccc3Cl)c2c1O` [Example 18, {[3-(2-Chloro-6-fluoro-phenyl)-4-hydroxy-isoxazolo[5,4-c]pyridine-5-carbonyl]-amino}-acetic acid] displayed an inhibition at 22.22 µM of 88.2%. For the molecule `O=C(O)CNC(=O)c1ncc2onc(-c3ccc(F)cc3)c2c1O` [Example 19, {[3-(4-Fluoro-phenyl)-4-hydroxy-isoxazolo[5,4-c]pyridine-5-carbonyl]-amino}-acetic acid], testing at 22.22 µM gave an inhibition of 97.9%. For the molecule `N#Cc1nc(C(=O)NCC(=O)O)c(O)c2c(-c3ccccc3)noc12` [Example 20, [(7-Cyano-4-hydroxy-3-phenyl-isoxazolo[5,4-c]pyridine-5-carbonyl)-amino]-acetic acid], testing at 22.22 µM gave an inhibition of 98.5%. The same measure, in the same setting: for `O=C(O)CNC(=O)c1nc(Br)c2onc(-c3ccc(F)cc3)c2c1O` [Example 22, {[7-Bromo-3-(4-fluoro-phenyl)-4-hydroxy-isoxazolo[5,4-c]pyridine-5-carbonyl]-amino}-acetic acid] the value was 98.7%.

With `N#Cc1nc(C(=O)NCC(=O)O)c(O)c2c(-c3ccc(F)cc3)noc12` [Example 23, {[7-Cyano-3-(4-fluoro-phenyl)-4-hydroxy-isoxazolo[5,4-c]pyridine-5-carbonyl]-amino}-acetic acid], the inhibition at 22.22 µM is 98.2%.

`O=C(O)CNC(=O)c1nc(Br)c2onc(-c3ccc(Cl)cc3)c2c1O` [Example 24, {[7-Bromo-3-(4-chloro-phenyl)-4-hydroxy-isoxazolo[5,4-c]pyridine-5-carbonyl]-amino}-acetic acid] yielded an inhibition at 22.22 µM of 100%.

On to `N#Cc1nc(C(=O)NCC(=O)O)c(O)c2c(-c3ccc(Cl)cc3)noc12` [Example 25, {[3-(4-Chloro-phenyl)-7-cyano-4-hydroxy-isoxazolo[5,4-c]pyridine-5-carbonyl]-amino}-acetic acid], for which 22.22 µM produced 98.7% inhibition. On to `Cc1nc(C(=O)NCC(=O)O)c(O)c2c(-c3ccc(F)cc3)noc12` [Example 26, {[3-(4-Fluoro-phenyl)-4-hydroxy-7-methyl-isoxazolo[5,4-c]pyridine-5-carbonyl]-amino}-acetic acid], for which the inhibition at 22.22 µM worked out at 93.8%.

Staying with this test, now noted: Concentration 200.00 μM.
The molecule `O=C(O)CNC(=O)c1ncc2nc(-c3ccccc3)oc2c1O` [Example 1, [(7-Hydroxy-2-phenyl-oxazolo[4,5-c]pyridine-6-carbonyl)-amino]-acetic acid] registered an inhibition at 200 µM of 99.8%. Consider `O=C(O)CNC(=O)c1ncc2nc(-c3ccc(F)cc3)oc2c1O` [Example 2, {[2-(4-Fluoro-phenyl)-7-hydroxy-oxazolo[4,5-c]pyridine-6-carbonyl]-amino}-acetic acid], for which testing at 200 µM gave an inhibition of 100%. The same measure, in the same setting: with `Cc1nc(C(=O)NCC(=O)O)c(O)c2oc(-c3ccccc3)nc12` [Example 3, [(7-Hydroxy-4-methyl-2-phenyl-oxazolo[4,5-c]pyridine-6-carbonyl)-amino]-acetic acid] the figure was 48.9%; with `CCc1nc(C(=O)NCC(=O)O)c(O)c2oc(-c3ccccc3)nc12` [Example 4, [(4-Ethyl-7-hydroxy-2-phenyl-oxazolo[4,5-c]pyridine-6-carbonyl)-amino]-acetic acid], 99.2%. The molecule `O=C(O)CNC(=O)c1nc(-c2ccccc2)c2nc(-c3ccccc3)oc2c1O` [Example 5, [(7-Hydroxy-2,4-diphenyl-oxazolo[4,5-c]pyridine-6-carbonyl)-amino]-acetic acid] displayed an inhibition at 200 µM of 98.7%. The same measure, in the same setting: with `O=C(O)CNC(=O)c1nc(C#Cc2ccccc2)c2nc(-c3ccccc3)oc2c1O` [Example 6, [(7-Hydroxy-2-phenyl-4-phenylethynyl-oxazolo[4,5-c]pyridine-6-carbonyl)-amino]-acetic acid] the figure was 99%; with `CCCCc1nc(C(=O)NCC(=O)O)c(O)c2oc(-c3ccccc3)nc12` [Example 7, [(4-Butyl-7-hydroxy-2-phenyl-oxazolo[4,5-c]pyridine-6-carbonyl)-amino]-acetic acid], 99.5%; with `O=C(O)CNC(=O)c1nc(-c2ccc(F)cc2)c2nc(-c3ccccc3)oc2c1O` [Example 8, {[4-(4-Fluoro-phenyl)-7-hydroxy-2-phenyl-oxazolo[4,5-c]pyridine-6-carbonyl]-amino}-acetic acid], 97.3%.

Regarding `O=C(O)CNC(=O)c1ncc2oc(-c3ccccc3)nc2c1O` [Example 9, [(7-Hydroxy-2-phenyl-oxazolo[5,4-c]pyridine-6-carbonyl)-amino]-acetic acid], the inhibition at 200 µM was found to be 98.6%.

As for `COc1cccc(-c2nc(C(=O)NCC(=O)O)c(O)c3oc(-c4ccccc4)nc23)c1` [Example 10, {[7-Hydroxy-4-(3-methoxy-phenyl)-2-phenyl-oxazolo[4,5-c]pyridine-6-carbonyl]-amino}-acetic acid], the inhibition at 200 µM amounted to 99%. Same read-out and setting: with `O=C(O)CNC(=O)c1ncc2onc(-c3ccccc3)c2c1O` [Example 11, [(4-Hydroxy-3-phenyl-isoxazolo[5,4-c]pyridine-5-carbonyl)-amino]-acetic acid] the figure was 99.9%.

In the case of `Cc1nc(C(=O)NCC(=O)O)c(O)c2c(-c3ccccc3)noc12` [Example 12, [(4-Hydroxy-7-methyl-3-phenyl-isoxazolo[5,4-c]pyridine-5-carbonyl)-amino]-acetic acid], at 200 µM the inhibition was 98.6%. `Cc1nc(C(=O)NCC(=O)O)c(O)c2c(-c3ccc(Cl)cc3)noc12` [Example 21, {[3-(4-Chloro-phenyl)-4-hydroxy-7-methyl-isoxazolo[5,4-c]pyridine-5-carbonyl]-amino}-acetic acid] showed an inhibition at 200 µM of 99.4%.

On to `O=C(O)CNC(=O)c1nc(NCC(=O)O)c2onc(-c3cccc(Cl)c3)c2c1O` [Example 27, {[3-(3-Chloro-phenyl)-7-(ethanic acid-2-yl)amino-4-hydroxy-isoxazolo[5,4-c]pyridine-5-carbonyl]-amino}-acetic acid], for which the “% Inhibition (HIF-PH2)” value amounted to 96.45%.

(Values after patent US8269008B2, “Oxazolopyridine and isoxazolopyridine derivatives for use in the treatment of HIF-mediated conditions” (FibroGen, Inc., priority 2007, dated 2012).)
